For 26 molecules, melting point and IC50 results are on record in patent US7705030B2, “Amino-5-(5-membered)hetero-arylimidazolone compounds and the use thereof for β-secretase modulation” (Wyeth LLC, priority 2005, dated 2010).

Molecules are shown by their SMILES. Some results are limits rather than exact numbers.

For one data set, the target named is human BACE1 (Homo sapiens, UniProt P56817). Description: Fluorescent kinetic assay: Evaluation of BACE-1 Binding Affinity of Test Compounds. The following applies: 10 nM enzyme, 25 μM substrate WABC-6, 50 mM Na-Acetate pH 4.5, room temperature. In kind it is biochemical. An outline of the steps:
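Run with 10 nM human BACE1 and 25 μM WABC-6 FRET peptide in 50 mM Na-acetate pH 4.5, 0.05% CHAPS, 25% PBS at room temperature. Fluorescence (ex 320/em 420 nm) was read every 40 sec for 30 min, and initial cleavage rates were taken from linear slopes across ≥10 inhibitor concentrations.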

human BACE1, sequence (P56817 46-501): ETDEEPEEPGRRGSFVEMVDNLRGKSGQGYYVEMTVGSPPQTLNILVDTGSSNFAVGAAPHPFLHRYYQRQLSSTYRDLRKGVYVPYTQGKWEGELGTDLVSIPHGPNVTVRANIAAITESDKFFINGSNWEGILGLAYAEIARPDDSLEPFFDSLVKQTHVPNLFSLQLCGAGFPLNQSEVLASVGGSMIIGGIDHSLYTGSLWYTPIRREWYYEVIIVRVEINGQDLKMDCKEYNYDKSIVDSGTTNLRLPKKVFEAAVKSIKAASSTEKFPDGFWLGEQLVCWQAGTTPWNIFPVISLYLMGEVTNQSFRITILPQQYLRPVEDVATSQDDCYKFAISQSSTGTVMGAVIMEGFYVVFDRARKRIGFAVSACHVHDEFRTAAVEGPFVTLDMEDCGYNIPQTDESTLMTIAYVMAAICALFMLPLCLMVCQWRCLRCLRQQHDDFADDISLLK

The melting point is the temperature of the solid-liquid transition. A word on the IC50: it is the point on the concentration scale where inhibition reaches its midpoint. Higher therefore signals weaker potency in that assay. `COC(=O)c1cc([C@]2(c3ccc(F)c(-c4cncnc4)c3)N=C(N)N(C)C2=O)cn1CCF` [Example 119A, Methyl 4-[(4S)2-Amino-4-(4-fluoro-3-pyrimidinyl-5-phenyl)-1-methyl-5-oxo-4,5-dihydro-1H-imidazol-4-yl]-1-(2-fluoroethyl)-1H-pyrrole-2-carboxylate]: the melting point lay in the range of 186 to 188 °C. On human BACE1, the IC50 was in the range of 10 to 100 nM.

`CN1C(=O)C(c2ccc(F)c(-c3cccnc3F)c2)(c2cnn(CC(F)(F)F)c2)N=C1N` (stereo not shown) [Example 7, 2-Amino-5-[4-fluoro-3-(2-fluoropyridin-3-yl)phenyl]-3-methyl-5-[1-(2,2,2-trifluoroethyl)-1H-pyrazol-4-yl]-3,5-dihydro-4H-imidazol-4-one] showed a melting point of more than 225 °C. In addition, the concentration for half-maximal inhibition (IC50) at human BACE1 fell in the range of 110 to 1000 nM.

`CCn1cc(C2(c3ccc(F)c(-c4cccnc4F)c3)N=C(N)N(C)C2=O)cc1S(C)(=O)=O` (stereo not shown) [Example 188, 2-Amino-5-[1-ethyl-5-(methylsulfonyl)-1H-pyrrol-3-yl]-5-[4-fluoro-3-(2-fluoropyridin-3-yl)phenyl]-3-methyl-3,5-dihydro-4H-imidazol-4-one] gave a melting point of 193 to 195 °C. In addition, at human BACE1, the 50% inhibitory concentration (IC50) was 10 to 100 nM.

As for `CN1C(=O)C(c2cccc(-c3cccnc3F)c2)(c2cnn(CC(F)(F)F)c2)N=C1N` (stereo not shown) [Example 69, 2-amino-5-[3-(2-fluoropyridin-3-yl)phenyl]-3-methyl-5-[1-(2,2,2-trifluoroethyl)-1H-pyrazol-4-yl]-3,5-dihydro-4H-imidazol-4-one], the melting point fell in the range of 104 to 106 °C. This molecule returned an IC50 at human BACE1 of 10 to 100 nM.

In turn, `CC(C)Cn1cc(C2(c3cccc(-c4cccnc4F)c3)N=C(N)N(C)C2=O)cn1` (stereo not shown) [Example 3, 2-Amino-5-[3-(2-fluoropyridin-3-yl)phenyl]-5-(1-isobutyl-1H-pyrazol-4-yl)-3-methyl-3,5-dihydro-4H-imidazol-4-one] yielded a melting point of 94 to 98 °C. The IC50 on human BACE1 was in the range of 10 to 100 nM.

For `CCC(=O)c1cc(C2(c3cccc(-c4cccc(OC)c4)c3)N=C(N)N(C)C2=O)cn1CC(F)(F)F` (stereo not shown) [Example 202], the melting point fell in the range of 103 to 105 °C. Besides, the IC50 at human BACE1 is 10 to 100 nM.

In turn, `CCC(=O)Nc1cccc(C2(c3cc(C(=O)CC)n(CC)c3)N=C(N)N(C)C2=O)c1` (stereo not shown) [Example 130, N-{3-[2-amino-4-(1-ethyl-5-propionyl-1H-pyrrol-3-yl)-1-methyl-5-oxo-4,5-dihydro-1H-imidazol-4-yl]-phenyl}-propionamide] displayed a melting point of 120 to 141 °C. The molecule also came in with an IC50 on human BACE1 of 110 to 1000 nM.

For `CCC(=O)c1cc(C2(c3cccc(-c4cncnc4)c3)N=C(N)N(C)C2=O)cn1CC(F)(F)F` (stereo not shown) [Example 201], the melting point lay in the range of 135 to 137 °C. This molecule returned an IC50 on human BACE1 of 10 to 100 nM.

`CCn1cc(C2(c3cccc(-c4cccnc4F)c3)N=C(N)N(C)C2=O)cc1C(=O)C(C)C` (stereo not shown) [Example 173] had a melting point of 85 to 88 °C. In addition, the IC50 on human BACE1 was in the range of 10 to 100 nM.

For the molecule `CN1C(=O)C(c2cccc(-c3cccnc3F)c2)(c2cc(C=O)n(CCF)c2)N=C1N` (stereo not shown) [Example 234, 4-[2-Amino-4-[3-(2-fluoropyridin-3-yl)phenyl]-1-methyl-5-oxo-4,5-dihydro-1H-imidazol-4-yl]-1-(2-fluoroethyl)-1H-pyrrole-2-carbaldehyde], the melting point was 218 to 221 °C. Besides, the IC50 on human BACE1 fell in the range of 10 to 100 nM.

`CN1C(=O)C(c2cccc(-c3cncnc3)c2)(c2cnn(C3CCCC3)c2)N=C1N` (stereo not shown) [Example 105] showed a melting point of 112 to 115 °C. The IC50 on human BACE1 was in the range of 10 to 100 nM.

As for `CC(C)OC(=O)c1cc(C2(c3ccc(F)c(-c4cncnc4)c3)N=C(N)N(C)C2=O)cn1CCF` (stereo not shown) [Example 127], the melting point was in the range of 167 to 170 °C. The half-inhibitory concentration (IC50) on human BACE1 was 110 to 1000 nM.

`COC(=O)c1cc([C@@]2(c3ccc(F)c(-c4cncnc4)c3)N=C(N)N(C)C2=O)cn1CCF` [Example 119B, Methyl 4-[(4R)2-Amino-4-(4-fluoro-3-pyrimidinyl-5-phenyl)-1-methyl-5-oxo-4,5-dihydro-1H-imidazol-4-yl]-1-(2-fluoroethyl)-1H-pyrrole-2-carboxylate]: the melting point is 186 to 188 °C. The molecule further registered an IC50 on human BACE1 of 110 to 1000 nM.

In the case of `CCC(=O)c1cc(C2(c3cccc(OCC(C)C)c3)N=C(N)N(C)C2=O)cn1CC` (stereo not shown) [Example 138], the melting point turned out to be 78 °C. Further, the IC50 on human BACE1 was in the range of 10 to 100 nM.

Turning to `CCOc1ccc(C2(c3cc(C(=O)NC)n(CC)c3)N=C(N)N(C)C2=O)cc1-c1cccnc1F` (stereo not shown) [Example 128], the melting point was in the range of 148 to 150 °C. Besides, at human BACE1, the IC50 was more than 1000 nM.

For `CN1C(=O)C(c2cccc(-c3cncnc3)c2)(c2cnn(CCC(C)(C)C)c2)N=C1N` (stereo not shown) [Example 106], the melting point was 93 to 96 °C. The IC50 at human BACE1 was in the range of 10 to 100 nM.

In the case of `CN1C(=O)C(c2cccc(-c3cncnc3)c2)(c2cnn(CC(F)(F)F)c2)N=C1N` (stereo not shown) [Example 89], the melting point was in the range of 223 to 225 °C. In addition, the IC50 at human BACE1 fell in the range of 110 to 1000 nM.

On to `COc1cccc(-c2cccc(C3(c4cnn(CC(F)(F)F)c4)N=C(N)N(C)C3=O)c2)c1` (stereo not shown) [Example 82], for which the melting point fell in the range of 95 to 97 °C. Moreover, the IC50 at human BACE1 is 10 to 100 nM.

In turn, `CCC(=O)c1cc(C2(c3ccc(F)c(-c4cncnc4)c3)N=C(N)N(C)C2=O)cn1CC(F)(F)F` (stereo not shown) [Example 208] gave a melting point of 225 to 226 °C. For the same molecule, the IC50 at human BACE1 is 10 to 100 nM.

Take `COC(=O)c1cc(C2(c3cccc(-c4ccc(F)c(F)c4)c3)N=C(N)N(C)C2=O)cn1CCF` (stereo not shown) [Example 198]: the melting point fell in the range of 125 to 128 °C. The molecule also showed an IC50 at human BACE1 of 10 to 100 nM.

With `CCC(=O)c1cc([C@]2(c3ccc(F)c(-c4cccnc4F)c3)N=C(N)N(C)C2=O)cn1CC` [Example 183A, (5S)-2-Amino-5-(1-ethyl-5-propionyl-1H-pyrrol-3-yl)-5-[4-fluoro-3-(2-fluoropyridin-3-yl)phenyl]-3-methyl-3,5-dihydro-4H-imidazol-4-one], the melting point is 114 to 116 °C. Also, the IC50 on human BACE1 was 10 to 100 nM.

As for `CN1C(=O)C(c2cc[nH]c2)(c2cccc(OCc3ccccc3)c2)N=C1N` (stereo not shown) [Example 58, 2-amino-5-(3-benzyloxyphenyl)-5-(1H-pyrrol-3-yl)-3-methyl-3,5-dihydro-4H-imidazol-4-one], the melting point was 98 to 100 °C. The same molecule had an IC50 at human BACE1 of more than 1000 nM.

`CCCCNC(=O)c1cc(C2(c3cccc(-c4cccnc4F)c3)N=C(N)N(C)C2=O)cn1CC` (stereo not shown) [Example 160] registered a melting point of 118 to 120 °C. This molecule returned an IC50 on human BACE1 of 10 to 100 nM.

`CN1C(=O)C(c2cccc(-c3cccnc3F)c2)(c2cc(CN3CCCC3)n(CCF)c2)N=C1N` (stereo not shown) [Example 237] returned a melting point of 110 to 120 °C. Further, the IC50 at human BACE1 was more than 1000 nM.

`CCn1cc([C@]2(c3cccc(-c4cccnc4F)c3)N=C(N)N(C)C2=O)cc1C(C)=O` [Example 187, (5S)-5-(5-Acetyl-1-ethyl-1H-pyrrol-3-yl)-2-amino-5-[3-(2-fluoropyridin-3-yl)phenyl]-3-methyl-3,5-dihydro-4H-imidazol-4-one] gave a melting point of 109 to 111 °C. At human BACE1, this molecule gave an IC50 of 10 to 100 nM.

As for `CCn1cc(C2(c3cccc(-c4cccnc4F)c3)N=C(N)N(C)C2=O)cc1C(=O)NC(C)C` (stereo not shown) [Example 161], the melting point lay within 121 to 123 °C. The same molecule gave an IC50 on human BACE1 of 110 to 1000 nM.
